According to ChEMBL document CHEMBL5523756, “Molecular Transformers: Adaptive Multitarget Ligands for Esterase-Induced Transition from Analgesics to Anesthetics” (J Med Chem, 2024):
pIC50: −log10 of the molar value. The source made the active and inactive calls.

Key:
[1] = biological target: T1, Sodium channel protein type 10 subunit alpha (Homo sapiens, UniProt Q9Y5Y9); test: Inhibition of Nav1.8 channel (unknown origin) at half inactivation state at -120 mV conditioning pulse by voltage clamp electrophysiological recording
Target sequence in this assay (Q9Y5Y9 whole entry): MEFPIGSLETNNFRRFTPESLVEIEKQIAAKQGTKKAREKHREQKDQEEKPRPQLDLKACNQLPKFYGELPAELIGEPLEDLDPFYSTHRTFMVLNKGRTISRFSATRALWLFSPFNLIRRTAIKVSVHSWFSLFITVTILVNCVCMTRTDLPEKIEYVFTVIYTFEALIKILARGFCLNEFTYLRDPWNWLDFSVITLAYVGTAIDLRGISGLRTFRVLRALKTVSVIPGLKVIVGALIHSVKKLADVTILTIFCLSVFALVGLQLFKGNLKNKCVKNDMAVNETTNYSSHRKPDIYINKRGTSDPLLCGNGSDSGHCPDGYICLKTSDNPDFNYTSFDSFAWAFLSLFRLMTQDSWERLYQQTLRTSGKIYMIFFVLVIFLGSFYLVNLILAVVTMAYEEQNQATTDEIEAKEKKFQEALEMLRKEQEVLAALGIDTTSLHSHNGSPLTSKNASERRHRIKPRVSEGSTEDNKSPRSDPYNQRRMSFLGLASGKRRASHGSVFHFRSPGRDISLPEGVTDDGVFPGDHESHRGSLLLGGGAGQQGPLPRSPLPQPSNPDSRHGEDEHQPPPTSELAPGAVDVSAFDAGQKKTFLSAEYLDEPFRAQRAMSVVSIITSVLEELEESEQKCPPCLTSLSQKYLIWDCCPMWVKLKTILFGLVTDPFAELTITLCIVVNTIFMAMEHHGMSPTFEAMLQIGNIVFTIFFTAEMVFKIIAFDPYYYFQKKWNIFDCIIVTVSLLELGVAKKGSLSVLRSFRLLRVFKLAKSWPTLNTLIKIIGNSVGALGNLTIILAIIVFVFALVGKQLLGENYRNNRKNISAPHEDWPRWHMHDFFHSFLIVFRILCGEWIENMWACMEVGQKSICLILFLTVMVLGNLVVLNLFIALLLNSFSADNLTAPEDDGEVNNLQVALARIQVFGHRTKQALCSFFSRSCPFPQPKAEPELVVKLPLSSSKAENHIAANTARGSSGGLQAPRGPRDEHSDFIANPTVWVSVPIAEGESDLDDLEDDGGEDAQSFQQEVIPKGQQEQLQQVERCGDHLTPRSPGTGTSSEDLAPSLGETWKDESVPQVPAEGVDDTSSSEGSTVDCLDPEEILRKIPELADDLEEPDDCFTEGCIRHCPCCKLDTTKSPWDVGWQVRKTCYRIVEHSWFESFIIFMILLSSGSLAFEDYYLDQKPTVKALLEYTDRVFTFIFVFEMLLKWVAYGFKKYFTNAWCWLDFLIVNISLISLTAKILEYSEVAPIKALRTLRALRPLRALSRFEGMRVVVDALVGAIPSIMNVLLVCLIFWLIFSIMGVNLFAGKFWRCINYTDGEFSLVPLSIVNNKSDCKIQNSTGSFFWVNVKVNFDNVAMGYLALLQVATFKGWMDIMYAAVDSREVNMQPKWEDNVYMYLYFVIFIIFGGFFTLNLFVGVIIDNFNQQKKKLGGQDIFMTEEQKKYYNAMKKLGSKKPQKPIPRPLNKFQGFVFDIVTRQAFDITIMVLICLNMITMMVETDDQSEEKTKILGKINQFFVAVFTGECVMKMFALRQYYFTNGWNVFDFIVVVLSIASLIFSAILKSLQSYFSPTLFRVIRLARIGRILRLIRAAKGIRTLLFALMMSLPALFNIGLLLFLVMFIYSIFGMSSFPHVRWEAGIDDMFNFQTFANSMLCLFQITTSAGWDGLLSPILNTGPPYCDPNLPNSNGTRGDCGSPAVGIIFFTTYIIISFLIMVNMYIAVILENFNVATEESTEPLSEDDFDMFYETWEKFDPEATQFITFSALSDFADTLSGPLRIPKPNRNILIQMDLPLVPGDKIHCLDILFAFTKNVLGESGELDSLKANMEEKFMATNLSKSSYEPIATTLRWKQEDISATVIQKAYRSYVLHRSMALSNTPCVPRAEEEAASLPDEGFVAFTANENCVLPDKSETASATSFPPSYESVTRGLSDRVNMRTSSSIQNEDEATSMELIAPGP

[2] = biological target: T1, Sodium channel protein type 10 subunit alpha; test: Binding affinity to Nav1.8 (unknown origin) expressed in HEK293T cells assessed as retention time of compound at 1 mg/ml by cell membrane chromatography; assay type: cell membranes
Target sequence in this assay (Q9Y5Y9 whole entry, looked up): as the sequence (Q9Y5Y9 whole entry) above

[3] = Toxicity in Sprague-Dawley rat assessed as reduction in heart rate at 19 mg/kg administered as continuous infusion followed by maintenance at 3.25 mg/kg/min for 0 to 20 mins, 2.5 mg/kg/min for 20 to 30 mins and 2 mg/kg/min for 30 to 60 mins by electrocardiogram recording; assay type: organism-based; parameters: scale not given: the % may be the effect or the level left; conditions: in vivo, other, 1 h, route par
Mus musculus [4] = test: Analgesic effect in ICR mouse model of CFA-induced chronic inflammatory pain assessed as increase in paw withdrawal threshold at 0.07 mmol/kg, ip measured upto 90 mins by Von Frey test; assay type: functional, organism-based
[5] = Toxicity in Sprague-Dawley rat assessed as Q-T interval prolongation at 19 mg/kg administered as continuous infusion followed by maintenance at 3.25 mg/kg/min for 0 to 20 mins, 2.5 mg/kg/min for 20 to 30 mins and 2 mg/kg/min for 30 to 60 mins by electrocardiogram recording; assay type: organism-based; conditions: in vivo, other, 1 h, route par
DRG neuron = test: Modulation of CFA-induced male ICR mouse DRG neuron excitability assessed as reduction in resting membrane potential at 10 uM by whole cell […] assay; assay type: functional, cell-based
[6] = (§1) Toxicity in Sprague-Dawley rat assessed as effect on AST level at 19 mg/kg administered as continuous infusion followed by maintenance at 3.25 mg/kg/min for 0 to 20 mins, 2.5 mg/kg/min for 20 to 30 mins and 2 mg/kg/min for 30 to 60 mins; assay type: organism-based; conditions: in vivo, other, 1 h, route par
[7] = Toxicity in Sprague-Dawley rat assessed as effect on creatinine level at 19 mg/kg administered as continuous infusion followed by maintenance at 3.25 mg/kg/min for 0 to 20 mins, 2.5 mg/kg/min for 20 to 30 mins and 2 mg/kg/min for 30 to 60 mins; assay type: organism-based; conditions: in vivo, other, 1 h, route par
[8] = biological target: Sodium channel protein type 5 subunit alpha (Homo sapiens, UniProt Q14524); test: Inhibition of Nav1.5 channel (unknown origin) at resting state at -120 mV conditioning pulse by voltage clamp electrophysiological recording; assay type: toxicity
Sequence of Sodium channel protein type 5 subunit alpha (Q14524 whole entry): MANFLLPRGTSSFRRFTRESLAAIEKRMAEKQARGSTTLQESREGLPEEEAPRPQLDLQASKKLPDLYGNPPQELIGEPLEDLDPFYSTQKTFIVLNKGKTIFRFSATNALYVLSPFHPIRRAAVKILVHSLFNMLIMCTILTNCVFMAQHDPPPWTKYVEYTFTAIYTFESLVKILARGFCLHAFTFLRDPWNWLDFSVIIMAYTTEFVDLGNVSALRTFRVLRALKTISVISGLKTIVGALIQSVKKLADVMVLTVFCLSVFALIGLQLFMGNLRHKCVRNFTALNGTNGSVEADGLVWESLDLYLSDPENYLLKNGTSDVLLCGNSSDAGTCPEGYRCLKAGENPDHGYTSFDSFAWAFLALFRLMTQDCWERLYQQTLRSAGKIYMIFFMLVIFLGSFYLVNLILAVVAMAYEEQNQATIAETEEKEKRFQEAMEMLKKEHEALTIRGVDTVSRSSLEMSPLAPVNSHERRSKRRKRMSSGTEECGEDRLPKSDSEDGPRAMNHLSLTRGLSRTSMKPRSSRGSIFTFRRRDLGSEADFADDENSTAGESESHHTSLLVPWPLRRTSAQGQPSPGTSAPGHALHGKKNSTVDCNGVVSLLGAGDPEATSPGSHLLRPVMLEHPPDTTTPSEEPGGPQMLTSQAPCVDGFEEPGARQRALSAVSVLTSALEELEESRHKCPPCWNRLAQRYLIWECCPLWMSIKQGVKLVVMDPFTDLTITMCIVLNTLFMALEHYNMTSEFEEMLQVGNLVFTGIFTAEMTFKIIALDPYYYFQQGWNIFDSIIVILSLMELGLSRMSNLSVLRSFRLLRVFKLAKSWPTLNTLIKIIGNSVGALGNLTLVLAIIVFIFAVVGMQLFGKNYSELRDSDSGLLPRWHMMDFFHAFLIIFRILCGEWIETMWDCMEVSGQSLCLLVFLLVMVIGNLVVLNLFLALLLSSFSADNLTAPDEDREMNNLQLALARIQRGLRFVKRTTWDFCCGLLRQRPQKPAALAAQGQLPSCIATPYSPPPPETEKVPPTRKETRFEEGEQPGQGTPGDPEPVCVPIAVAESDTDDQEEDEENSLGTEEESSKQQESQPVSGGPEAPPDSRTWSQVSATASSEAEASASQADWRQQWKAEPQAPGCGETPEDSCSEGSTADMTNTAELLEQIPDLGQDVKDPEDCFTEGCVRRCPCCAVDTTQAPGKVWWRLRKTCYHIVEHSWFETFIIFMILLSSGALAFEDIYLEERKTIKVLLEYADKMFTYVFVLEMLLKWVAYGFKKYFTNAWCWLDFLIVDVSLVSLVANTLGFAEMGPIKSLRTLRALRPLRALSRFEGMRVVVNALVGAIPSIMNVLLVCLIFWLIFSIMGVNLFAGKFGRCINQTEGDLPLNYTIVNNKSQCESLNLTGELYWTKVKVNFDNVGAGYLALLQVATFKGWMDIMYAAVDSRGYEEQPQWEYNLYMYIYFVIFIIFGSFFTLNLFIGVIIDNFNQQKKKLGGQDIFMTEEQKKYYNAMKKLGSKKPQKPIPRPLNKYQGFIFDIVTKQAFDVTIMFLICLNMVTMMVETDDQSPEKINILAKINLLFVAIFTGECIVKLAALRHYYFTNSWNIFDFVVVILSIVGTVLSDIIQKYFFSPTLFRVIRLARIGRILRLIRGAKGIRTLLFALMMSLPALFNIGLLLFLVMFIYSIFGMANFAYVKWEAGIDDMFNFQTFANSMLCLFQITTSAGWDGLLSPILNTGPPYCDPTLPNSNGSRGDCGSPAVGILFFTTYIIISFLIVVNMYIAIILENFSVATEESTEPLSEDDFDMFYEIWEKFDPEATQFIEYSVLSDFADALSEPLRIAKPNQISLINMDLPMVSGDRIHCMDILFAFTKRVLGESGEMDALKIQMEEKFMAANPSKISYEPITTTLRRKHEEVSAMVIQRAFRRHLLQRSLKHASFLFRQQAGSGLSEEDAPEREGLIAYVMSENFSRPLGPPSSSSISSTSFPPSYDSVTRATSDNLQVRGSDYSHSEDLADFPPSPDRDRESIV

Cytochrome P450 2C9 = Cytochrome P450 2C9 (Homo sapiens, UniProt P11712); test: Inhibition of CYP2C9 (unknown origin) using diclofenac as substrate at 10 uM; assay type: ADME
Sequence of Cytochrome P450 2C9 (P11712 whole entry, the tested form may be a part): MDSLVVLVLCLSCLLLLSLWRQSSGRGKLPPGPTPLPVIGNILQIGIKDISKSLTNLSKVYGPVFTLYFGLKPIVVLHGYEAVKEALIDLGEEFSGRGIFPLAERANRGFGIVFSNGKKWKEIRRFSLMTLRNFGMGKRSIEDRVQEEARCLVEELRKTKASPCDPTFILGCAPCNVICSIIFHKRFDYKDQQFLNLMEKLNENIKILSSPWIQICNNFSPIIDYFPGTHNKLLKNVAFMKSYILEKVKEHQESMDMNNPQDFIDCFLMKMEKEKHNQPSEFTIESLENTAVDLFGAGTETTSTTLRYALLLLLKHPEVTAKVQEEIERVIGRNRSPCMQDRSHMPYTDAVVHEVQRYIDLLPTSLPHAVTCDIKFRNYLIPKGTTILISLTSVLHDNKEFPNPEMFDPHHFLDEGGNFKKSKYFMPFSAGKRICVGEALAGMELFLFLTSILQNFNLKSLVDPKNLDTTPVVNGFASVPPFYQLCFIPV

[9] = Toxicity in Sprague-Dawley rat assessed as effect on alpha-HBDH level at 19 mg/kg administered as continuous infusion followed by maintenance at 3.25 mg/kg/min for 0 to 20 mins, 2.5 mg/kg/min for 20 to 30 mins and 2 mg/kg/min for 30 to 60 mins; assay type: organism-based; conditions: in vivo, other, 1 h, route par
[10] = Toxicity in Sprague-Dawley rat assessed as urea level at 19 mg/kg administered as continuous infusion followed by maintenance at 3.25 mg/kg/min for 0 to 20 mins, 2.5 mg/kg/min for 20 to 30 mins and 2 mg/kg/min for 30 to 60 mins; assay type: organism-based; conditions: in vivo, other, 1 h, route par
[11] = Drug metabolism in mouse liver microsomes assessed as propofol release by measuring half life at 1 mg/ml measured upto 360 mins by LC-MS analysis; assay type: ADME, Microsome; conditions: 6 h
Cocaine esterase = biological target: T2, Cocaine esterase (Homo sapiens, UniProt O00748); test: Drug metabolism assessed as human CES2-mediated propofol release at 1 mg/ml measured upto 240 mins by LC-MS analysis; assay type: ADME; conditions: 4 h
T2 sequence (O00748 whole entry): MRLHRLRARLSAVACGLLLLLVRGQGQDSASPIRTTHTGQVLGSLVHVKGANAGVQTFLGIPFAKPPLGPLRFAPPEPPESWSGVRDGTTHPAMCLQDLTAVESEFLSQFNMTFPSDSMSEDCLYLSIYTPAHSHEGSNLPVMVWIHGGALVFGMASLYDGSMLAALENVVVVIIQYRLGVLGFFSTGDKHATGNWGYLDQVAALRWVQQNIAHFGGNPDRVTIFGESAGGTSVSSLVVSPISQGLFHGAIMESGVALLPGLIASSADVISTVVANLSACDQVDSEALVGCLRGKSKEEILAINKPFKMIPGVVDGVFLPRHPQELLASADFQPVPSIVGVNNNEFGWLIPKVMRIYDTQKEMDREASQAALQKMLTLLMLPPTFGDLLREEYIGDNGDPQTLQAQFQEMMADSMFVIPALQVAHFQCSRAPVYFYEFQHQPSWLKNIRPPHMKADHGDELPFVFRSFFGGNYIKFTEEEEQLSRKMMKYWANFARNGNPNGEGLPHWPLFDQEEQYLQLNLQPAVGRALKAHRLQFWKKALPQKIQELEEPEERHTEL

[12] = Stability in mouse plasma assessed as half life at 1 mg/ml measured upto 360 mins by HPLC analysis; assay type: ADME, cell-free
[13] = Toxicity in ICR mouse assessed as survival rate at 1.5 times ED50 administered intravenously; conditions: in vivo, route iv
Cytochrome P450 3A4 = Cytochrome P450 3A4 (Homo sapiens, UniProt P08684); test: Inhibition of CYP3A4 (unknown origin) using midazolam as substrate at 10 uM; assay type: ADME
Sequence of Cytochrome P450 3A4 (P08684 whole entry): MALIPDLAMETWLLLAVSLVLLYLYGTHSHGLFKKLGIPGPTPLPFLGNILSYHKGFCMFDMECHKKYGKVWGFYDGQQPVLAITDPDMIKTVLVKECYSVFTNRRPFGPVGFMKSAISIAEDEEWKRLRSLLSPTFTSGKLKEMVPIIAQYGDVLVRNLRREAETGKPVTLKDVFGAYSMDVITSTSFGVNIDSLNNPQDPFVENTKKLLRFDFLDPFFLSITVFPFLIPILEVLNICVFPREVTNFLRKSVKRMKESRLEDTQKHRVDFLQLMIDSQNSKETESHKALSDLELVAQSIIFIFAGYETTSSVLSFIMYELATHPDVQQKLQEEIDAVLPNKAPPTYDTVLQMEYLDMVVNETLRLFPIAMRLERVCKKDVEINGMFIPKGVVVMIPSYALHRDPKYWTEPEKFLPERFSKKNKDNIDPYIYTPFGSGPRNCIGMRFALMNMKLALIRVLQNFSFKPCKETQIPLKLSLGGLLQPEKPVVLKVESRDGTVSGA

[14] = Stability of compound assessed as porcine liver esterase mediated propofol release by measuring half life at 1 mg/ml by HPLC analysis; assay type: ADME, Sus scrofa; conditions: pig, isolated protein
Mus musculus [15] = test: Antiseizure activity in iv dosed ICR mouse model of PTZ-induced acute seizure assessed as prolongation of latency time before onset of first convulsion preadministered for 1 min followed by PTZ treatment; assay type: functional, organism-based
[16] = as §1, with “effect on end expiratory pause at 19” for “effect on AST level at 19”, “60 mins and measured every 5 mins for 60 mins by whole-body plethysmography” for “60 mins”; assay type: organism-based; conditions: in vivo, other, 1 h, route par
Rattus norvegicus [17] = test: Analgesic activity in Sprague-Dawley rat model of mechanical nociceptive irritation assessed as response to tail pinch at 19 mg/kg administered as continuous infusion followed by maintenance at 3.25 mg/kg/min for 0 to 20 mins, 2.5 mg/kg/min for 20 to 30 mins and 2 mg/kg/min for 30 to 60 mins; assay type: functional, organism-based; conditions: route par
Rattus norvegicus [18] = test: Anesthesia recovery in Sprague-Dawley rat assessed as effect on recovery time of righting reflex at 19 mg/kg administered as continuous infusion followed by maintenance at 3.25 mg/kg/min for 0 to 20 mins, 2.5 mg/kg/min for 20 to 30 mins and 2 mg/kg/min for 30 to 60 mins; assay type: functional, organism-based; conditions: route par
[19] = Toxicity in Sprague-Dawley rat assessed as effect on gastrointestinal function by measuring ink peristalsis at 19 mg/kg administered as continuous infusion followed by maintenance at 3.25 mg/kg/min for 0 to 20 mins, 2.5 mg/kg/min for 20 to 30 mins and 2 mg/kg/min for 30 to 60 mins and further administered with ink suspension and measured after 10 mins; assay type: organism-based; conditions: in vivo, other, 1.167 h, route par, time 70 min
Rattus norvegicus [20] = test: Analgesic activity in Sprague-Dawley rat model of thermal nociception assessed as increase in hind-paw withdrawal latency at 19 mg/kg administered as continuous infusion followed by maintenance at 3.25 mg/kg/min for 0 to 20 mins, 2.5 mg/kg/min for 20 to 30 mins and 2 mg/kg/min for 30 to 60 mins; assay type: functional, organism-based; conditions: route par, TDE = time-dependent effect

Compound: CCN(CC)CCOC(=O)Oc1c(C(C)C)cccc1C(C)C.Cl
- pIC50 [1]: 5.72
- Retention time [2]: 112 min
- Activity [3]: < 20%
- Activity (Mus musculus [4]): Active
- Activity [5]: Non-Toxic
- Activity (DRG neuron): inactive
- Activity [6]: Non-Toxic
- Activity [7]: Non-Toxic
- pIC50 [8]: 4.63
- inhibition (INH) (Cytochrome P450 2C9): Not Active
- Activity [9]: Non-Toxic
- Activity [10]: 11.03 mmol/L
- t1/2 [11]: 45.98 min
- Drug metabolism (Cocaine esterase): Metabolite_Detected
- half-life at 1 mg/ml [12]: 19.2 min
- survival [13]: 100%
- inhibition (INH) (Cytochrome P450 3A4): Not Active
- t1/2 [14]: 8.609 min
- Activity (Mus musculus [15]): Active
- Activity [16]: Non-Toxic
- Activity (Rattus norvegicus [17]): Active
- Activity (Rattus norvegicus [18]): Active
- Activity [19]: Non-Toxic
- Activity (Rattus norvegicus [20]): Tde
